Measured values from US4567182A, “Compounds endowed with immunomodulating activity” (Co Pharma Corporation s.r.l., priority 1981, dated 1986).

Experiments:
T-lymphocytes = test: Ability of T-lymphocytes to form "active" E-rosettes; type: cell-based
Method: The effect of the compounds object of this invention on the ability of T-lymphocytes to form "active" E-rosettes, has also been studied (Pasino e coll., Boll. Ist. Sieroter, Mil. 60, 4, 297-301, 1981).
Lymphocytes were incubated at 4° for 24 hours, then isolated and incubated for 90 min. in the presence or absence of different concentrations of the drug prior to the assay. Data were expressed as % of cells forming rosettes: as an example, compound (Ib-2) gave an enhancement of the percentage from 35 to 50%, at concentrations from 1 and 3 μg/ml; higher concentrations, the percentage of active E-rosettes decreased.

[1] = tested on: polymorphonuclear leucocytes; test: Polymorphonuclear (PMN) membrane-stimulated oxidative metabolic activity (superoxide production); type: cell-based
Method: In FIG. 2 the results of the study of the effect of (Ib-4) on the polymorphonuclear (PMN) […] membrane-stimulated oxidative metabolic activity are reported: polymorphonuclear leucocytes (2.5×10^4 /ml) in phosphate buffer solution (PBS) were incubated for 15' at 37° C. with ferricytochrome C (1.5 mg/ml) in the presence or absence of superoxide dismutase (SOD) (0.125 mg/ml) after the addition of 50 μl of stimulating agent.
The amount of reduced cytochrome C in che cell free supernatant was determined spectrophotometrically at 550 nm and the O2^- release calculated according to a standard formula. Appropriate control tubes contained fixed doses of (Ib-4) (from 0.01 γ/ml to 200 γ/ml).

[2] = tested on: PHA stimulated lymphocytes; test: Stimulation by phytohemagglutinin (PHA) of lymphocytes from Hodgkin's disease patients; type: cell-based, human (patients affected by Hodgkin's disease); details: for effect on the PHA response: Ib-4 already at 0.1 γ/ml, methisoprinol at 200-400 γ/ml
From the text: In FIG. 1, the effects of compound (Ib-4) are shown in comparison with methisoprinol on the stimulation by phytohemagglutinin (PHA) of lymphocytes extracted by patients affected by Hodgkin's disease and off-therapy since, at least, 17 months. The PHA response of lymphocytes of these patients are below normal range.
The in vitro effect of (Ib, 4) and methisoprinol on the stimulation by PHA of lymphocytes was studied by cultivating PHA stimulated lymphocytes in the presence of these compounds at different doses: methisoprinol at 100, 200, 400 γ/ml; (Ib-4) at 0.1, 0.5, 1 and 5 γ/ml.

[3] = tested on: spleen cells from BALB/C mice; test: Incorporation of labelled thymidine stimulated by PHA or LPS in spleen cells; type: cell-based, mouse (BALB/C); set-up: Thymid. inc.: unit not given here
Method: Ib-4 is also active, at doses ranging from 0.001 to 40 μg/ml, in inhibiting the incorporation of labelled thymidine stimulated by phytohemagglutinin (PHA) or lypopolysaccharides (LPS), in spleen cells from BALB/C mice 8-10 weeks old. The inhibition of the proliferation in vitro is dose-dependent and it is probably due to activation of suppressor cell mechanism. In the following table the results of thymidine incorporation in a 10^6 cells/ml culture have been listed.

[4] = tested on: autologous lymphocytes stimulated by concanavalin A; test: Suppressor cell effect: proliferative response of autologous lymphocytes stimulated by concanavalin A; type: cell-based, human (healthy volunteers); details: 0.1 to 1.5 μg/ml; 48 h drug incubation; concanavalin A 3 days
Method: (§1) The effect of (Ib-4) on the suppressor cell has also been studied using lymphocytes from healthy volunteers, incubated for 48 hours with different drug concentrations then washed and incubated either with autologous lymphocytes stimulated by concanavalin A for 3 days or with allogeneic mitomycin-treated lymphocytes for 5 days (Mixed Lymphocytes Reaction): (Ib-4), at concentrations between 0.1 and 1.5 μg/ml, gave an inhibition of the proliferative response of about 60% in comparison with controls.

[5] = tested on: allogeneic mitomycin-treated lymphocytes; test: Suppressor cell effect: Mixed Lymphocytes Reaction; type: cell-based, human (healthy volunteers); details: 0.1 to 1.5 μg/ml; 48 h drug incubation; mixed lymphocytes 5 days
Method: as §1

In the case of CC(NC(=O)CCC(=O)OCCn1cnc2c(O)ncnc21)C(=O)O (racemic) [Ib-2, 6-Hydroxy-9-{2-[2-(1-carboxy)ethylaminocarbonylethyl]carbonyloxyethyl}purine], the “% of cells forming active E-rosettes” value (T-lymphocytes; 1 and 3 μg/ml, enhanced from 35%, 90 min incubation) is reported as 50% and the “percentage of active E-rosettes at higher concentrations” value (T-lymphocytes; concentrations higher than 1 and 3 μg/ml) is reported as “decreased”.
In the case of N=C(NCCC[C@H](N)C(=O)O)NC(=O)CCC(=O)OCCn1cnc2c(O)ncnc21 [Ib-4, N-{3-[2-(6-hydroxypurinyl-9)-ethoxycarbonyl]propionyl}-N'-(4-carboxy-4-amino-butyl)guanidine], the “enhancement in the superoxide production” value ([1]; 1 γ/ml, T-test for paired data) is reported as “statistically significant enhancement in the superoxide production”, the “O2- production at higher dosages” value ([1]; dosages higher than 1 γ/ml (up to 200 γ/ml)) is reported as “gradual decrease of the O2^- production” and the minimal effective concentration ([2]; Homo sapiens, Lymphocyte, in vitro, lymphocytes of Hodgkin's disease patients off-therapy, read-out: dose producing enhancement of the PHA response) is reported as no more than 0.1 µg/mL. The “effect on the PHA response” value [2] was “marked enhancement of the PHA response”, the Thymid. inc. ([3]; LPS (printed LPSD), drug 0.1 μg/ml, control without drug 15631+/-215) was 729+/-51 and the Thymid. inc. ([3]; LPS, drug 0.001 μg/ml, control without drug 15631+/-215) was 4600+/-85. The Thymid. inc. ([3]; LPS, drug 0.01 μg/ml, control without drug 15631+/-215) was 435+/-113, the Thymid. inc. ([3]; LPS, drug 1 μg/ml, control without drug 15631+/-215) was 665+/-19 and the Thymid. inc. ([3]; LPS, drug 2.5 μg/ml, control without drug 15631+/-215) was 627+/-40. For the same compound, the Thymid. inc. ([3]; LPS, drug 5 μg/ml, control without drug 15631+/-215) was 445+/-44, the Thymid. inc. ([3]; LPS, drug 10 μg/ml, control without drug 15631+/-215) was 385+/-38 and the Thymid. inc. ([3]; LPS, drug 15 μg/ml, control without drug 15631+/-215) was 405+/-51. The Thymid. inc. ([3]; LPS, drug 20 μg/ml, control without drug 15631+/-215) was 385+/-38, the Thymid. inc. ([3]; LPS, drug 40 μg/ml, 10^6 cells/ml, control without drug 15631+/-215) was 329+/-23 and the “inhibition of the proliferation in vitro” value ([3]; PHA or LPS stimulated, 0.001 to 40 μg/ml) was “dose-dependent”. For the same compound, the Thymid. inc. ([3]; PHA, drug 0.001 μg/ml, control without drug 3089+/-177) was 840+/-87, the Thymid. inc. ([3]; PHA, drug 0.01 μg/ml, control without drug 3089+/-177) was 850+/-61 and the Thymid. inc. ([3]; PHA, drug 0.1 μg/ml, control without drug 3089+/-177) was 721+/-77. For the same compound, the Thymid. inc. ([3]; PHA, drug 1 μg/ml, control without drug 3089+/-177) was 316+/-78, the Thymid. inc. ([3]; PHA, drug 2.5 μg/ml, control without drug 3089+/-177) was 250+/-34 and the Thymid. inc. ([3]; PHA, drug 5 μg/ml, control without drug 3089+/-177) was 193+/-50. The Thymid. inc. ([3]; PHA, drug 10 μg/ml, control without drug 3089+/-177) was 146+/-19, the Thymid. inc. ([3]; PHA, drug 15 μg/ml, control without drug 3089+/-177) was 141+/-40 and the Thymid. inc. ([3]; PHA, drug 20 μg/ml, control without drug 3089+/-177) was 241+/-16. For the same compound, the Thymid. inc. ([3]; PHA, drug 40 μg/ml, 10^6 cells/ml, control without drug 3089+/-177) was 159+/-13, the “inhibition of the proliferative response in comparison with controls” value [4] was “about 60%” and the “inhibition of the proliferative response in comparison with controls” value [5] was “about 60%”.
In the case of methisoprinol [reference compound], the “effect on the PHA response” value [2] is reported as “a stimulating effect which is less than that produced by (Ib-4)” and the “dose producing enhancement of the PHA response” value ([2]; in vitro, lymphocytes of Hodgkin's disease patients off-therapy) is reported as 200 to 400 µg/mL.
